US20260184707A1, “PHARMACEUTICAL COMPOUNDS FOR THE TREATMENT OF COMPLEMENT MEDIATED DISORDERS” (ALEXION PHARMACEUTICALS, INC., priority 2022, published 2026)

The compounds below were run against T1, Human complement C1s enzyme (Homo sapiens, UniProt P09871) (assay: Human C1s enzyme assay). Conditions: human complement C1s enzyme 1.16 nM, substrate Z-L-Lys-SBzl, A405; read-out: IC50 (Stars).
T1 construct: purified from human serum, Complement Technology, Inc; purchased Complement Technology, Inc; host or cells: human serum (plasma-derived native protein)
T1 sequence (P09871 438-688 limits assumed): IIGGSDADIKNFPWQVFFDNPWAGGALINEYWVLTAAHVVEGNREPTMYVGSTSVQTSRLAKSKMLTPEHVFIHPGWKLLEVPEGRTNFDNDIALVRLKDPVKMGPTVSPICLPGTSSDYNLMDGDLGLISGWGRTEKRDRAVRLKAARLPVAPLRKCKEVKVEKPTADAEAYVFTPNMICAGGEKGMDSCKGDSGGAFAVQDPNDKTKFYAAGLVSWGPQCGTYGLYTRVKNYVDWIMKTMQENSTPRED
T1 sequence (P09871 16-437 partner limits assumed): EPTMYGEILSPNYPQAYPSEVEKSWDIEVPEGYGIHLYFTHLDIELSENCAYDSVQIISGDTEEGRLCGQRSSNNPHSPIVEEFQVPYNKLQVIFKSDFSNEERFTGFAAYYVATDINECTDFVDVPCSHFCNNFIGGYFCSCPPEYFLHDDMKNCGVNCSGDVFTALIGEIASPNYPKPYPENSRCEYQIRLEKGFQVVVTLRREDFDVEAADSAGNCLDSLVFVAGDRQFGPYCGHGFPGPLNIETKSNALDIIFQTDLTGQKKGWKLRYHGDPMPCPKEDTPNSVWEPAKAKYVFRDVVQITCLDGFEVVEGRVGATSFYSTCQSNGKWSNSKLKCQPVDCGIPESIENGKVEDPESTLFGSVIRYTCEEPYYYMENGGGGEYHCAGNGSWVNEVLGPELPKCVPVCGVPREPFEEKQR
Format: biochemical
Method in brief: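 Thioesterase activity followed colorimetrically (DTNB, A405, 30-s reads) using 100 μM Z-L-Lys-SBzl substrate. Enzyme, human serum-derived C1s at 1.16 nM final, was incubated with test compound for 5 min, room temperature, pH 7.5 Tris buffer with 1 M NaCl. Rate-versus-concentration data fitted by nonlinear regression for IC50.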

| SMILES | IC50 [nM] |
| --- | --- |
| C[C@@H](Nc1cnc(N2CCCC(F)C2)n(CC(=O)NCc2cc3cnccc3[nH]2)c1=O)c1ccc2oc3ccccc3c2c1 (stereo partly drawn) [Compound 398, N-((1H-pyrrolo[3,2-c]pyridin-2-yl)methyl)-2-(5-(((R)-1-(dibenzo[b,d]furan-2-yl)ethyl)-amino)-2-(3-fluoropiperidin-1-yl)-6-oxopyrimidin-1(6H)-yl)-acetamide] | < 100 |
| O=C(Cn1c(-c2ccccc2)ncc(NCCCc2ccc3oc4ccccc4c3c2)c1=O)NCc1cc2cnccc2[nH]1 [Compound 40, N-((1H-pyrrolo[3,2-c]pyridin-2-yl)methyl)-2-(5-((3-(dibenzo [b,d]furan-2-yl)propyl)amino)-6-oxo-2-phenylpyrimidin-1(6H)-yl)acetamide] | < 100 |
| O=C(Cn1c(-c2ccccc2)ncc(NC(=O)c2ccc(-c3ncc[nH]3)cc2)c1=O)NCc1cc2cnccc2[nH]1 [Compound 175, N-(1-(2-(((1H-pyrrolo[3,2-c]pyridin-2-yl)methyl)amino)-2-oxoethyl)-6-oxo-2-phenyl-1,6-dihydropyrimidin-5-yl)-4-(1H-imidazol-2-yl)benzamide] | < 100 |
| C[C@@H](Nc1cnc(-c2ncco2)n(CC(=O)NCc2cc3cnccc3[nH]2)c1=O)c1ccc2oc3ccccc3c2c1 [Compound 320, (R)-N-((1H-pyrrolo[3,2-c]pyridin-2-yl)methyl)-2-(5-((1-(dibenzo[b,d]furan-2-yl)ethyl)-amino)-2-(oxazol-2-yl)-6-oxo-pyrimidin-1(6H)-yl)acetamide] | < 100 |
| O=C(Cn1c(-c2ccc(OCCOc3ccc(F)cc3)cc2)ncc(NCc2ccc3oc4ccccc4c3c2)c1=O)NCc1cc2cnccc2[nH]1 [Compound 154, N-((1H-pyrrolo[3,2-c]pyridine-2-yl)methyl)-2-(5-((dibenzo[b,d]furan-2-ylmethyl)amino)-2-(4-(2-(4-fluorophenoxy)ethoxy)phenyl)-6-oxopyrimidin-1(6H)-yl)acetamide] | < 100 |
| C[C@@H](Nc1cnc(N2CCCCC2)n(CC(=O)NCc2cc3cnccc3[nH]2)c1=O)c1coc(-c2ccccc2)n1 [Compound 460, (R)-N-((1H-pyrrolo[3,2-c]pyridin-2-yl)methyl)-2-(6-oxo-5-((1-(2-phenyloxazol-4-yl)-ethyl)amino)-2-(piperidin-1-yl)pyrimidin-1(6H)-yl)acet-amide] | 100 to 1000 |
| C[C@@H](Nc1ncc(N2CCCCC2)n(CC(=O)NCc2cc3cnccc3[nH]2)c1=O)c1ccc2oc3ccccc3c2c1 [Compound 415, (R)-N-((1H-pyrrolo[3,2-c]pyridin-2-yl)methyl)-2-(3-((1-(dibenzo[b,d]furan-2-yl)ethyl)-amino)-2-oxo-6-(piperidin-1-yl)pyrazin-1(2H)-yl)acetamide] | < 100 |
| C[C@H](Nc1cnc(N2CCOCC2)n(CC(=O)NCc2cc3cnccc3[nH]2)c1=O)c1ccc2oc3ccccc3c2c1 [Compound 295, (S)-N-((1H-pyrrolo[3,2-c]pyr-idin-2-yl)methyl)-2-(5-((1-(dibenzo[b,d]furan-2-yl)ethyl)-amino)-2-morpholino-6-oxo-pyrimidin-1(6H)-yl)acetamide] | < 100 |
| O=C(Cn1c(-c2ccccc2F)ncc(NCc2ccc3oc4ccccc4c3c2)c1=O)NCc1cc2cnccc2[nH]1 [Compound 120, N-((1H-pyrrolo[3,2-c]pyridin-2-yl)methyl)-2-(5-((dibenzo [b,d]furan-2-ylmethyl)amino)-2-(2-fluorophenyl)-6-oxopyr-imidin-1(6H)-yl)acetamide] | < 100 |
| O=C(Cn1c(-c2ccccc2)ncc(NCCOc2ccccc2)c1=O)NCc1cc2cnccc2[nH]1 [Compound 6, N-((1H-pyrrolo[3,2-c]pyridin-2-yl)methyl)-2-(6-oxo-5-((2-phenoxyethyl)amino)-2-phen-ylpyrimidin-1(6H)-yl)aceamide] | < 100 |
| O=C(Cn1c(-c2ccccc2)ncc(-c2nc3c(s2)CCCC3)c1=O)NCc1cc2cnccc2[nH]1 [Compound 30, N-((1H-pyrrolo[3,2-c]pyridin-2-yl)methyl)-2-(6-oxo-2-phenyl-5-(4,5,6,7-tetrahydrobenzo[d]thiazol-2-yl)pyrimidin-1(6H)-yl)acetamide] | > 1000 |
| O=C(Cn1c(-c2ccccc2)cnc(NCCCc2ccccc2)c1=O)N[C@H](CO)c1cc2cnccc2[nH]1 [Compound 13, (S)-N-(2-hydroxy-1-(1H-pyr-rolo[3,2-c]pyridin-2-yl)ethyl)-2-(2-oxo-6-phenyl-3-((3-phen-ylpropyl)amino)pyrazin-1(2H)-yl)acetamide] | 100 to 1000 |
| Cc1ncc(NC(=O)c2csc(-c3ccccc3)n2)c(=O)n1CC(=O)NCc1cc2cnccc2[nH]1 [Compound 406, N-(1-(2-(((1H-pyrrolo[3,2-c]pyridine-2-yl)methyl)amino)-2-oxoethyl)-2-methyl-6-oxo-1,6-dihydropyrimidin-5-yl)-2-phenylthiazole-4-carboxamide] | 100 to 1000 |
| O=C(Cn1c(-c2ccccc2)ncc(Nc2ccc(Oc3ccccc3)cc2)c1=O)NCc1cc2cnccc2[nH]1 [Compound 228, N-((1H-pyrrolo[3,2-c]pyridin-2-yl)methyl)-2-(6-oxo-5-((4-phenoxyphenyl)amino)-2-phenylpyrimidin-1(6H)-yl)-acetamide] | < 100 |

The remaining lines, values ahead:

| IC50 [nM] | SMILES |
| --- | --- |
| < 100 | O=C(Cn1c(-c2ccccc2)ncc(NCCCc2cc3ccc2CCc2ccc(cc2)CC3)c1=O)NCc1cc2cnccc2[nH]1 [Compound 113, 2-(5-((3-(1,4(1,4)-dibenzenacyclohexaphane-1^2-yl)propyl)amino)-6-oxo-2-phenylpyrimidin-1(6H)-yl)-N-((1H-pyrrolo[3,2-c]pyridine-2-yl)methyl)acetamide] |
| < 100 | Cc1nc(-c2ccccc2)n(CC(=O)NCc2cc3cnccc3[nH]2)c(=O)c1N[C@H](C)c1ccc2oc3ccccc3c2c1 [Compound 336, (R)—N-((1H-pyrrolo[3,2-c]pyridin-2-yl)methyl)-2-(5-((1-(dibenzo[b,d]furan-2-yl)ethyl)amino)-4-methyl-6-oxo-2-phenylpyrimidin-1(6H)-yl)acetamide] |
| < 100 | C[C@@H](Nc1cnc(N2CCN(C)CC2)n(CC(=O)NCc2cc3cnccc3[nH]2)c1=O)c1ccc2oc3ccccc3c2c1 [Compound 389, (R)-N-((1H-pyrrolo[3,2-c]pyridin-2-yl)methyl)-2-(5-((1-(dibenzo[b,d]furan-2-yl)ethyl)-amino)-2-(4-methylpiperazin-1-yl)-6-oxopyrimidin-1(6H)-yl)acetamide] |
| < 100 | O=C(Cn1c(-c2ccccc2)ncc(NCCCc2ccc(C(=O)c3ccccc3)cc2)c1=O)NCc1cc2cnccc2[nH]1 [Compound 41, N-((1H-pyrrolo[3,2-c]pyridin-2-yl)methyl)-2-(5-((3-(4-benzo-ylphenyl)propyl)amino)-6-oxo-2-phenylpyrimidin-1(6H)-yl)-acetamide] |
| < 100 | O=C(Cn1c(-c2ccccc2)ncc(NC(=O)C2CCC(c3ccccc3)CC2)c1=O)NCc1cc2cnccc2[nH]1 (centres unmarked) [Compound 254, N-(1-(2-(((1H-pyrrolo[3,2-c]pyridin-2-yl)methyl)amino)-2-oxoethyl)-6-oxo-2-phenyl-1,6-dihydropyrimidin-5-yl)-4-phen-ylcyclohexane-1-carboxamide] |
| < 100 | C[C@@H](Nc1cnc(-c2ccc(O[C@@H]3CO[C@H]4[C@@H]3OC[C@H]4O)cc2)n(CC(=O)NCc2cc3cnccc3[nH]2)c1=O)c1ccc2oc3ccccc3c2c1 [Compound 377, N-((1H-pyrrolo[3,2-c]pyridine-2-yl)methyl)-2-(5-(((R)-1-(dibenzo[b,d]furan-2-yl)ethyl)amino)-2-(4-(((3R,3aR,6R,6aR)-6-hydroxyhexahydrofuro[3,2-b]furan-3-yl)oxy)phenyl)-6-oxopyrimidin-1(6H)-yl)acetamide] |
| < 100 | O=C(Cn1c(-c2ccccc2)ncc(NC(=O)c2ccc(-c3cnco3)cc2)c1=O)NCc1cc2cnccc2[nH]1 [Compound 93, N-(1-(2-(((1H-pyrrolo[3,2-c]pyridin-2-yl)methyl)amino)-2-oxoethyl)-6-oxo-2-phenyl-1,6-dihydropyrimidin-5-yl)-4-(oxazol-5-yl)benzamide] |
| < 100 | O=C(Cn1c(-c2ccccc2)ncc(NC(=O)c2cccc(Oc3ccccc3)c2)c1=O)NCc1cc2cnccc2[nH]1 [Compound 58, N-(1-(2-(((1H-pyrrolo[3,2-c]pyridin-2-yl)methyl)amino)-2-oxoethyl)-6-oxo-2-phenyl-1,6-dihydropyrimidin-5-yl)-3-phen-oxybenzamide] |
| 100 to 1000 | CO[C@@H]1CO[C@H]2[C@@H]1OC[C@H]2Oc1ncc(NCCCc2ccccc2)c(=O)n1CC(=O)NCc1cc2cnccc2[nH]1 [Compound 87, N-((1H-pyrrolo[3,2-c]pyridine-2-yl)methyl)-2-(2-(((3R,3aR,6R,6aR)-6-methoxyhexahydrofuro[3,2-b]furan-3-yl)oxy)-6-oxo-5-((3-phenylpropyl)amino)pyrimidin-1(6H)-yl)acetamide] |
